Data taken from patent publication US10813936B2, “Crystalline form of (S)-N-(5-((R)-2-(2,5-difluorophenyl)-pyrrolidin-1-YL)-pyrazolo[1,5-A]pyrimidin-3-YL)-3-hydroxypyrrolidine-1-carboxamide hydrogen sulfate” (Array BioPharma, Inc., priority 2014, dated 2020).
Counter-ions that a name gives are not always drawn.

Key:
[1] = test system: MPRIP-TRKA oncoprotein and ERK1/2; assay: Immunoblot of phosphorylation in CUTO-3F cells; assay type: cell-based, human; settings: low doses, 2 hours
Excerpt: (§1) Briefly, cells were lysed in RIPA buffer with Halt Protease and Phosphatase Inhibitor Cocktail (Thermo Scientific) and diluted in loading buffer (LI-COR Biosciences). The membranes were scanned and analyzed using the Odyssey Imaging System and software (LI-COR). The following antibodies were used from Cell Signaling: pTRK Y490 (rabbit polyclonal, #9141), pERK1/2 XP T202/Y204 (#9101), total ERK1/2, pAKT 5473 (rabbit mAb, #4060), and total AKT mouse clone D3A7 (#2920). TRK (C-14) rabbit polyclonal antibody was purchased from Santa Cruz Biotechnology. GAPDH (MAB374) and pTYR (4G10) are from Millipore.

[2] = test system: TPM3-TRKA, pAKT, and pERK1/2; assay: Immunoblot of phosphorylation in KM12 cells; assay type: cell-based, human; settings: low doses, 2 hours
Excerpt: as §1

[3] = test system: TEL-TRKC oncoprotein, pAKT, and pERK1/2; assay: Immunoblot of phosphorylation in MO-91 cells; assay type: cell-based, human; settings: low doses, 2 hours
Excerpt: FIG. 13 is an immunoblot showing that the crystalline form (I—HS)inhibits TEL-TRKC kinase and ERK1/2 and AKT activity in MO-91 cells.
as §1

[4] = test system: TRKA-SHC1 complexes; assay: TRK-SHC1 proximity ligation assay in CUTO-3 cells; assay type: cell-based, human; settings: 100 nM, 2 hours, versus DMSO
Description: PLAs are unique because they can detect functional signaling complexes between a kinase and one of its adaptors in situ. In this assay, TRKA complexed with its preferred adaptor, SHC1, which binds to Y496 in the TRKA kinase domain, was measured (FIG. 17).
Cells were seeded onto glass coverslips (in a 48 well plate) or chamber slides at 25-75 k cells/well. Cells were treated with the indicated doses and times then fixed for 15 minutes by shaking at room temperature in 4% paraformaldehyde. The cells were rinsed twice in PBS, and then the Duolink® in situ PLA® kit from SigmaAldrich in mouse/rabbit (Red) was used according to the manufacturer's protocol (catalog # DUO92101). The antibody concentrations were optimized using immunofluorescence prior to PLA experiments. […] Additionally, samples were treated with 300 mM glycine for 15 minutes prior to the blocking step, otherwise the assay was performed according to the manufacturer's protocol. The cells were mounted using Prolong® gold anti-fade reagent (with DAPI) and cured overnight prior to imaging. The images were either taken on a Nikon standard inverted fluorescent microscope at 40×, or on the 31 Marianas spinning disc confocal in the University of Colorado Anschutz Medical Campus Advance Light Microscopy Core at 40× or 100×. […]

[5] = test system: xenograph (human) tumor derived from CUTO-3F cell line; assay: Xenograft tumor growth, CUTO-3F; assay type: in vivo, mice; settings: CUTO-3F xenograft, oral daily 60 mg/kg or 200 mg/kg
Excerpt: (§2) The three different cancer cell lines, the CUTO-3F cell line, the KM12 cell line, and the MO-91 cell line, each express a different Trk gene fusion. […] Following implantation of one of these three different xenograph (human) tumors in mice, the change in the volume of each tumor was monitored.

[6] = test system: xenograph (human) tumor derived from KM12 cell line; assay: Xenograft tumor growth, KM12; assay type: in vivo, mice; settings: oral daily 60 mg/kg or 200 mg/kg
Excerpt: as §2

[7] = test system: xenograph (human) tumor derived from MO-91 cell line; assay: Xenograft tumor growth, MO-91; assay type: in vivo, mice; settings: MO-91 xenograft, oral daily 60 mg/kg or 200 mg/kg
Excerpt: as §2

[8] = test system: undifferentiated sarcoma with LMNA-NTRK1 fusion; assay: Phase 1 trial case: patient with undifferentiated sarcoma; assay type: in vivo, human; settings: one patient
Excerpt: The patient started cycle 1 day 1 three days later. The patient was seen weekly for pharmacokinetic and safety analysis.

[9] = test system: solid tumors with NTRK-fusions; assay: Phase 1 study: response (RECIST 1.1) in NTRK-fusion patients; assay type: in vivo, human; settings: 100 or 150 mg BID
Description: Three of the 23 patients harbored NTRK-fusions and were treated at either 100 or 150 mg BID.

[10] = Dynamic vapor sorption (DVS-1 system); assay type: physicochemical; settings: for DVS (outcome): form after or during DVS, HCl at 50-60% RH
Description: For the DVS measurement a sample of crystalline form (I—HS) was cycled through changing humidity conditions to determine its hygroscopicity. The sample was analyzed using a Surface Measurement System DVS-1 Dynamic Vapor Sorption System. […] Data was collected in 1 minute intervals. Nitrogen was used as the carrier gas. […] After completion of the sorption cycle, the sample was dried using the same procedure, but all the way down to 0% RH and finally taken back to the starting point of 20% RH. The weight change during the sorption/desorption cycles were plotted, allowing for the hygroscopic nature of the sample to be determined.

[11] = Stability on aluminum slide at 40° Celsius/75% RH; assay type: physicochemical; settings: time: I-HS 10 days, HCl 1 hour, HBr 2 weeks, mesylate overnight
[12] = Dynamic vapor sorption (IGAsorp analyzer, 25° C.); assay type: physicochemical
Description: • 1. The hygroscopicity was studied at 25° C. using an IGAsorp analyzer. • 2. About 15 mg of sample was placed in a tared mesh sample holder at an initial ambient room humidity setting of ˜35%. • 3. A total wet/dry nitrogen flow rate of 250 cc/min is used throughout the study. • 4. […] The maximum time allowed at any one humidity set point was 120 min. The sample was maintained under dry N2 after the cycle was completed. Percent weight gain was calculated based on the dry weight basis. Part One: Physical Characterization of Crystalline Form (I—HS)

[13] = Accelerated stability, 40° C./75% RH, five weeks, LDPE bag; assay type: physicochemical; settings: for API chemical purity over the course of the stability study: five weeks; for Assay / Chiral Potency / Total Impurities: HPLC
Description: Upon removal from the chamber, the samples were physically characterized by appearance, KF, TGA, DSC, XRD and PLM. The samples were also analyzed by HPLC for chromatographic purity, chiral integrity and potency. Where applicable, the data presented in the stability portion also includes the original T=0 data for comparison purposes. The data can be seen in Tables 25-29 and FIGS. 40-44.

[14] = Phase 1 dose escalation study: safety and pharmacokinetics
Description: Response is measured by RECIST Criteria, version 1.1. Serum is collected for pharmacokinetic analysis on Cycle 1 Day 1 and Day 8. Safety information is collected on all patients and the definition of dose-limiting toxicity applies to adverse events regardless of relationship to investigational product.

O=C(Nc1cnn2ccc(N3CCC[C@@H]3c3cc(F)ccc3F)nc12)N1CC[C@H](O)C1 [crystalline form (I—HS), (S)—N-(5-((R)-2-(2,5-difluorophenyl)-pyrrolidin-1-yl)-pyrazolo[1,5-a]pyrimidin-3-yl)-3-hydroxypyrrolidine-1-carboxamide hydrogen sulfate]
inhibition of phosphorylation of the MPRIP-TRKA oncoprotein and ERK1/2 [1]: inhibition
inhibition of phosphorylation of TPM3-TRKA, pAKT, and pERK1/2 [2]: inhibition
inhibition of phosphorylation of the TEL-TRKC oncoprotein, pAKT, and pERK1/2 [3]: inhibition
effect on TRKA-SHC1 complexes (PLA) [4]: disruption of TRKA-SHC1 complexes
growth of xenograft tumor [5]: effectively halt the growth, or decrease the rate of growth
growth of xenograft tumor [6]: effectively halt the growth, or decrease the rate of growth
growth of xenograft tumor [7]: effectively halt the growth, or decrease the rate of growth
response by RECIST 1.1 ([8]; 100 mg twice daily, CT prior to cycle 2 and cycle 3): partial response
drug-related adverse events ([8]; 4-week period of cycle 1): No drug-related adverse events
adverse events attributed to the drug ([8]; after four months of dosing): did not have any adverse events
oxygen saturation ([8]; on room air, after treatment (baseline 90% with 5 L oxygen)): 97%
CA125 levels ([8]; over cycle 1): normalized
response of the three NTRK-fusion patients [9]: partial response
hygroscopicity (DVS) [10]: non-hygroscopic
increase in mass during the sorption cycle ([10]; between 0% and 90% RH): about 1.7%
DVS (outcome) [10]: RH No change
Stability at 40° Celsius/75% RH (aluminum slide) [11]: No form change
hygroscopicity (DVS) [12]: not hygroscopic
Peak Area Percent, RRT 0.793 ([13]; 40 C/75% RH, 5 wks.): 0.07 Peak Area Percent
Peak Area Percent, RRT 0.863 ([13]; 40 C/75% RH, 5 wks.): 0.00 Peak Area Percent
Peak Area Percent, RRT 0.981 ([13]; 40 C/75% RH, 5 wks.): 0.00 Peak Area Percent
Peak Area Percent, RRT 1.000 ([13]; 40 C/75% RH, 5 wks.): 99.93 Peak Area Percent
Peak Area Percent, RRT 1.535 ([13]; 40 C/75% RH, 5 wks.): 0.00 Peak Area Percent
Appearance ([13]; 40° C./75% RH, 5 wks.): Orange Powder free
KF ([13]; 40° C./75% RH, 5 wks.): 0.21 w/w %
API chemical purity over the course of the stability study ([13]; 40° C./75% RH): did not change significantly
Assay ([13]; 40° C./75% RH, 5 wks.): 79.6%
Chiral Potency ([13]; 40° C./75% RH, 5 wks.): 99.6%
Total Impurities ([13]; 40° C./75% RH, 5 wks.): 0.07%
Assay ([13]; time point 0 wks.): 79.4%
Chiral Potency ([13]; time point 0 wks.): 99.6%
Total Impurities ([13]; time point 0 wks.): 0.14%
Appearance ([13]; time point 0 wks.): Orange Powder free
KF ([13]; time point 0 wks.): 0.28 w/w %
Peak Area Percent, RRT 0.793 ([13]; time point 0 wks.): 0.07 Peak Area Percent
Peak Area Percent, RRT 0.863 ([13]; time point 0 wks.): 0.00 Peak Area Percent
Peak Area Percent, RRT 0.981 ([13]; time point 0 wks.): 0.00 Peak Area Percent
Peak Area Percent, RRT 1.000 ([13]; time point 0 wks.): 99.86 Peak Area Percent
Peak Area Percent, RRT 1.535 ([13]; time point 0 wks.): 0.07 Peak Area Percent
adverse event: Grade 1 and 2 anemia ([14]; 23 patients): 22%
adverse event: Grade 1 and 2 dizziness ([14]; 23 patients): 26%
adverse event: Grade 1 and 2 fatigue ([14]; 23 patients): 35%
patients with dose limiting toxicities ([14]; elevated AST grade 3 (150 mg BID), delirium grade 3 unrelated (100 mg BID)): Two

CS(=O)(=O)O.O=C(Nc1cnn2ccc(N3CCC[C@@H]3c3cc(F)ccc3F)nc12)N1CC[C@H](O)C1 [Mesylate, (S)—N-(5-((R)-2-(2,5-difluorophenyl)pyrrolidin-1-yl)pyrazolo[1,5-a]pyrimidin-3-yl)-3-hydroxypyrrolidine-1-carboxamide methanesulfonate]
DVS (outcome) [10]: (crystalline)
Stability at 40° Celsius/75% RH (aluminum slide) [11]: Deliquesced

O=C(Nc1cnn2ccc(N3CCC[C@@H]3c3cc(F)ccc3F)nc12)N1CC[C@H](O)C1.O=S(=O)(O)O [AM(HS), (S)—N-(5-((R)-2-(2,5-difluorophenyl)-pyrrolidin-1-yl)-pyrazolo[1,5-a]pyrimidin-3-yl)-3-hydroxypyrrolidine-1-carboxamide hydrogen sulfate]
behaviour when exposed to humidity [13]: deliquesced

Cl.O=C(Nc1cnn2ccc(N3CCC[C@@H]3c3cc(F)ccc3F)nc12)N1CC[C@H](O)C1 [HCl, (S)—N-(5-((R)-2-(2,5-difluorophenyl)pyrrolidin-1-yl)pyrazolo[1,5-a]pyrimidin-3-yl)-3-hydroxypyrrolidine-1-carboxamide hydrochloride]
DVS (outcome) [10]: form change
Stability at 40° Celsius/75% RH (aluminum slide) [11]: form change

O=C(Nc1cnn2ccc(N3CCC[C@@H]3c3cc(F)ccc3F)nc12)N1CC[C@H](O)C1.O=S(=O)(O)O [AM(HS)1, (S)—N-(5-((R)-2-(2,5-difluorophenyl)-pyrrolidin-1-yl)-pyrazolo[1,5-a]pyrimidin-3-yl)-3-hydroxypyrrolidine-1-carboxamide hydrogen sulfate]
Peak Area Percent, RRT 0.793 ([13]; 40 C/75% RH, 5 wks.): 0.00 Peak Area Percent
Peak Area Percent, RRT 0.863 ([13]; 40 C/75% RH, 5 wks.): 1.04 Peak Area Percent
Peak Area Percent, RRT 0.981 ([13]; 40 C/75% RH, 5 wks.): 0.12 Peak Area Percent
Peak Area Percent, RRT 1.000 ([13]; 40 C/75% RH, 5 wks.): 98.83 Peak Area Percent
Peak Area Percent, RRT 1.535 ([13]; 40 C/75% RH, 5 wks.): 0.00 Peak Area Percent
KF ([13]; 40° C./75% RH, 5 wks.): 0.56 w/w %
API chemical purity over the course of the stability study ([13]; 40° C./75% RH): did not change significantly
Assay ([13]; 40° C./75% RH, 5 wks.): 80.3%
Chiral Potency ([13]; 40° C./75% RH, 5 wks.): 99.6%
Total Impurities ([13]; 40° C./75% RH, 5 wks.): 1.16%
Assay ([13]; time point 0 wks.): 79.5%
Chiral Potency ([13]; time point 0 wks.): 99.6%
Total Impurities ([13]; time point 0 wks.): 1.10%
Appearance ([13]; time point 0 wks.): Yellow Powder free
KF ([13]; time point 0 wks.): 2.00 w/w %
Peak Area Percent, RRT 0.793 ([13]; time point 0 wks.): 0.00 Peak Area Percent
Peak Area Percent, RRT 0.863 ([13]; time point 0 wks.): 0.98 Peak Area Percent
Peak Area Percent, RRT 0.981 ([13]; time point 0 wks.): 0.12 Peak Area Percent
Peak Area Percent, RRT 1.000 ([13]; time point 0 wks.): 98.89 Peak Area Percent
Peak Area Percent, RRT 1.535 ([13]; time point 0 wks.): 0.00 Peak Area Percent

Br.O=C(Nc1cnn2ccc(N3CCC[C@@H]3c3cc(F)ccc3F)nc12)N1CC[C@H](O)C1 [HBr, (S)—N-(5-((R)-2-(2,5-difluorophenyl)pyrrolidin-1-yl)pyrazolo[1,5-a]pyrimidin-3-yl)-3-hydroxypyrrolidine-1-carboxamide hydrobromide]
DVS (outcome) [10]: (deliquesced)
Stability at 40° Celsius/75% RH (aluminum slide) [11]: amorphous
